“And” between values parts separate entries of the source, which are not always exact repeats. Equal entries are not always repeated. Toxic doses and inconclusive results are not listed. The calls were made as follows: active = survival T/C of 150% or more; inactive = T/C below 125% in these data.
System: BDF1 mice, Lewis lung carcinoma iv, survival T/C
Test: NCI In Vivo Anticancer Drug Screen. Data for tumor model Lewis Lung Carcinoma (intravenous) in B6D2F1 (BDF1) mice
Conditions: endpoint: median survival time, higher = longer survival
Procedure: The antitumor activity of compounds was measured in mice bearing transplantable tumors. Survival or tumor size were measured and the results are expressed as the measurement made in the treated group (T) divided by the measurement made in the vehicle treated control group (C). The tumor model used in this assay is Lewis Lung Carcinoma (intravenous) in B6D2F1 (BDF1) mice

[1] = dose: 12.5 mg/kg/injection, schedule: Q01DX009 (ip), vehicle: saline with Tween-80
[2] = dose: 25.0 mg/kg/injection, schedule: Q01DX009 (ip), vehicle: saline with Tween-80
[3] = dose: 50.0 mg/kg/injection, schedule: Q01DX009 (ip), vehicle: saline with Tween-80
[4] = dose: 100.0 mg/kg/injection, schedule: Q01DX009 (ip), vehicle: saline with Tween-80
[5] = dose: 400.0 mg/kg/injection, schedule: Q01DX009 (ip), vehicle: saline with Tween-80

Measured: T/C

COc1cccc2c1C(=O)c1c(O)c3c(c(O)c1C2=O)C[C@@](O)(/C(C)=N\NC(=O)CO)C[C@@H]3OC1CC(N)C(O)C(C)O1 (stereo not given in full)
inactive: dose: 0.37 mg/kg/injection, schedule: Q01DX009 (ip), vehicle: saline 105 % of control | dose: 0.75 mg/kg/injection, schedule: Q01DX009 (ip), vehicle: saline 106 % of control | dose: 1.5 mg/kg/injection, schedule: Q01DX009 (ip), vehicle: saline 101 % of control | dose: 3.0 mg/kg/injection, schedule: Q01DX009 (ip), vehicle: saline 115 % of control | dose: 6.0 mg/kg/injection, schedule: Q01DX009 (ip), vehicle: saline 103 % of control | dose: 12.0 mg/kg/injection, schedule: Q01DX009 (ip), vehicle: saline 105 % of control

CC(=O)c1c(O)c(C)c(O)c2c1OC1=CC(=O)C(C(C)=O)C(=O)C12C (stereo not given)
inactive: dose: 50.0 mg/kg/injection, schedule: Q01DX009 (ip), vehicle: gum acacia 89 % of control

N#Cc1nc(C#N)c(Sc2ccccc2)c(Sc2ccccc2)c1Sc1ccccc1
inactive: dose: 3.12 mg/kg/injection, schedule: Q01DX009 (ip), vehicle: saline with Tween-80 95 % of control | dose: 6.25 mg/kg/injection, schedule: Q01DX009 (ip), vehicle: saline with Tween-80 94 % of control | [1] 97 % of control | [2] 95 % of control | [3] 98 % of control | [4] 98 % of control

O=C(Nc1nncs1)c1cccs1
inactive: [1] 95 % of control | [2] 104 % of control | [3] 92 % of control | [4] 94 % of control | dose: 200.0 mg/kg/injection, schedule: Q01DX009 (ip), vehicle: saline with Tween-80 98 % of control | [5] 95 % of control

CN(C1=NS(=O)(=O)N=C(N(C)c2ccccc2)O1)c1ccccc1
inactive: dose: 12.5 mg/kg/injection, schedule: Q01DX009 (ip), vehicle: Klucel (hydroxypropylcellulose) (HPC) 97 % of control | dose: 25.0 mg/kg/injection, schedule: Q01DX009 (ip), vehicle: Klucel (hydroxypropylcellulose) (HPC) 102 % of control | dose: 50.0 mg/kg/injection, schedule: Q01DX009 (ip), vehicle: Klucel (hydroxypropylcellulose) (HPC) 97 % of control | dose: 100.0 mg/kg/injection, schedule: Q01DX009 (ip), vehicle: Klucel (hydroxypropylcellulose) (HPC) 99 % of control | dose: 200.0 mg/kg/injection, schedule: Q01DX009 (ip), vehicle: Klucel (hydroxypropylcellulose) (HPC) 117 % of control | dose: 400.0 mg/kg/injection, schedule: Q01DX009 (ip), vehicle: Klucel (hydroxypropylcellulose) (HPC) 102 % of control

CC[C@]1(O)C[C@H]2CN(CCc3c([nH]c4ccccc34)[C@@](C(=O)OC)(c3cc4c(cc3OC)N(C)[C@H]3[C@@](O)(C(=O)OC)[C@H](OC(C)=O)[C@]5(CC)C=CCN6CC[C@]43[C@@H]65)C2)C1
inactive: dose: 0.6 mg/kg/injection, schedule: Q04DX003 (ip), vehicle: saline 106 % of control | dose: 125.0 micrograms/kg/injection, schedule: Q04DX003 (ip), vehicle: saline 93 % of control (2×) and 102 % of control | dose: 250.0 micrograms/kg/injection, schedule: Q04DX003 (ip), vehicle: saline 92 % of control (2×) and 95 % of control | dose: 360.0 micrograms/kg/injection, schedule: Q01DX009 (ip), vehicle: saline 111 % of control | dose: 500.0 micrograms/kg/injection, schedule: Q04DX003 (ip), vehicle: saline 92 % of control (2×) and 95 % of control | dose: 600.0 micrograms/kg/injection, schedule: Q01DX009 (ip), vehicle: saline 92 % of control

c1ccc2c3c(ccc2c1)Sc1ccc2ccccc2c1N3
inactive: [4] 111 % of control | [5] 102 % of control

CC(C)C1OC(=O)/C=C/C=C/C=C/C=C/C=C/CC(O)C(C)C(O)CC(O)CC(O)CC(O)CC(O)CC(O)CC(O)/C=C/C1C (stereo not given)
inactive: dose: 6.25 mg/kg/injection, schedule: Q01DX009 (ip), vehicle: saline 111 % of control | dose: 12.5 mg/kg/injection, schedule: Q01DX009 (ip), vehicle: saline 104 % of control | dose: 25.0 mg/kg/injection, schedule: Q01DX009 (ip), vehicle: saline 111 % of control

C=C1C(=O)OC2C3OC(C)(CCC(O)C3COC(C)=O)CC(OC(=O)/C(=C/C)COC(C)=O)C12 (stereo not given)
inactive: dose: 0.75 mg/kg/injection, schedule: Q01DX009 (ip), vehicle: suspension in saline 112 % of control | dose: 1.5 mg/kg/injection, schedule: Q01DX009 (ip), vehicle: suspension in saline 103 % of control | dose: 3.0 mg/kg/injection, schedule: Q01DX009 (ip), vehicle: suspension in saline 89 % of control

CN(C)C(=O)c1cccc(COc2ccc(N3C(N)=NC(N)=NC3(C)C)cc2Cl)c1
inactive: dose: 0.09 mg/kg/injection, schedule: Q01DX009 (ip), vehicle: saline 95 % of control | dose: 0.19 mg/kg/injection, schedule: Q01DX009 (ip), vehicle: saline 108 % of control | dose: 0.39 mg/kg/injection, schedule: Q01DX009 (ip), vehicle: saline 95 % of control | dose: 0.78 mg/kg/injection, schedule: Q01DX009 (ip), vehicle: saline 101 % of control | dose: 1.56 mg/kg/injection, schedule: Q01DX009 (ip), vehicle: saline 92 % of control | dose: 3.12 mg/kg/injection, schedule: Q01DX009 (ip), vehicle: saline 118 % of control
